Measurements reported in publication PMC2673211, “Nitric oxide activates ATP-sensitive potassium channels in mammalian sensory neurons: action by direct S-nitrosylation” (Molecular Pain, 2009).

Legend:
[1] = biological target: T1, KATP channels in large DRG neurons (Rattus norvegicus, UniProt P70673+Q09429); assay: Excised inside-out (cell-free) patch-clamp recording of KATP channel activity; assay type: biochemical; settings: SS neurons; for direct effect on KATP channel in inside-out patches: n = 6
T1 construct: native KATP channels in large DRG neurons; endogenous in cells; host or cells: acutely dissociated large-diameter neurons from rat L4/L5 dorsal root ganglia (sham-operated or spinal nerve ligated animals)
Text: (§1) We harvested control (L4 and L5) or axotomized (L5) ganglia, from control (SS) or hyperalgesic rats (SNL) respectively, between the 17th and 28th postoperative days. We sacrificed animals by decapitation under deep isoflurane anesthesia, excised ganglia through a lumbar incision, and at the same time confirmed accuracy of initial surgery.
For patch-clamp recordings, we placed excised DRG into separate 35 mm Petri dishes containing cold, oxygenated, Hanks Balanced Salt Solution (Gibko, Invitrogen, Grand Islan, NY), and minced them with iris scissors. We dissociated ganglia enzymatically in a solution containing 0.25 ml 0.05% w:v liberase blendzyme 2 (Roche Diagnostics Corp., Indianapolis, IN) and 0.25 ml DMEM/F12 with glutaMAX (Dulbecco's modified Eagle's medium F12; Gibco, Invitrogen Corp., Carlsbad, CA) in an incubator at 37°C for 30 min. We then removed the supernatant after centrifugation and re-incubated cells at 37°C for another 30 min in 0.2 ml 0.0625% trypsin (Sigma, St. Louis, MO) and 0.0125% deoxyribonuclease 1 (150,000 U, Sigma, St. Louis, MO) in 0.25 ml DMEM. We then isolated cells by centrifugation (600 rpm for 5 min) after adding 0.25 ml trypsin inhibitor 0.1% w:v (Sigma St. Louis, MO), and re-suspended them in a culture medium consisting of 0.5 mM glutamine, 0.02 mg/ml gentamicin (Gibco, Invitrogen Corp., Carlsbad, CA), 100 ng/ml nerve growth factor 7S (Alomone Labs, Jerusalem, Israel), 2% (vol/vol) B-27 supplement (Gibco, Invitrogen Corp., Carlsbad, CA), and 98% (vol/vol) neural basal medium A (Gibco, Invitrogen Corp., Carlsbad, CA). Finally, we plated cells onto poly-l-lysine-coated 12-mm glass coverslips (Deutsche Spiegelglas; Carolina Biologic Supply, Burlington, NC), kept them in a humidified incubator at 37°C with 95% air and 5% CO2, and studied them within 3–8 h of dissociation.
We visualized plated neurons using an inverted Nikon Diaphot 300 microscope with Hoffman modulation optic system. We selected only large diameter neuronal somata (≥ 40 μm in diameter) because we have previously shown that only these develop KATP current alterations, as well as changes indicative of increased excitability after painful-like nerve injury by SNL [74]. Large neuronal somata, roughly correspond to large, myelinated Aβ fibers.
(§2) We recorded current passing through single channels in inside-out or cell-attached patch configurations. In cell-attached patches, both bath and pipette (extracellular) solutions were composed of the following: 140 mM KCl, 10 mM HEPES, 5.5 mM dextrose, and 1 mM EGTA. In inside-out patches, the bath (intracellular) solution contained 140 mM KCl, 1.2 mM MgCl2, 10 mM HEPES, 1.5 mM EGTA and 5.5 mM dextrose. The pipette (extracellular) solution was of the same composition as that used in cell-attached recordings. The pH of all solutions was adjusted to 7.4 with KOH. Osmolality was adjusted approximately to 300 mOsm/l by adding sucrose if necessary. We pulled patch micropipettes from borosilicate glass capillaries using a Flaming/Brown micropipette puller, model P-97 (Sutter, San Rafael, CA) and flame polished them with a microforge polisher (Narishige, Tokyo, Japan) prior to use. Their resistance ranged between 3 and 6 MΩ when filled with the internal solution, and placed into the recording solutions.
We recorded single channel currents at room temperature (20–25°C) using an Axon CNS Multiclamp 700B amplifier, digitized them using an analog-to-digital converter (Axon CNS DigiData 1440A; Axon Instruments, Foster, CA), and stored them into a PC. Sampling frequency of single-channel data was 5 KHz with a low-pass filter (1 KHz). We used pClamp version 10.2 software (Axon Instruments) for data acquisition and analysis. We applied a conventional 50% current amplitude threshold level criterion to determine open events. Channel open probability (Po) was determined from the ratios of the area under the peaks in the amplitude histograms fitted by a Gaussian distribution. […]

[2] = biological target: T1, KATP channels in large DRG neurons; assay: Cell-attached single-channel patch-clamp recording of KATP channel activity (NPo); assay type: cell-based; settings: for NPo steady-state value 10 minutes after application of SNAP: SNAP 100 μM, n = 7
Text: as §1
For patch-clamp recordings, we placed excised DRG into separate 35 mm Petri dishes containing cold, oxygenated, Hanks Balanced Salt Solution (Gibko, Invitrogen, Grand Islan, NY), and minced them with iris scissors. We dissociated ganglia enzymatically in a solution containing 0.25 ml 0.05% w:v liberase blendzyme 2 (Roche Diagnostics Corp., Indianapolis, IN) and 0.25 ml DMEM/F12 with glutaMAX (Dulbecco's modified Eagle's medium F12; Gibco, Invitrogen Corp., Carlsbad, CA) in an incubator at 37°C for 30 min. […] Finally, we plated cells onto poly-l-lysine-coated 12-mm glass coverslips (Deutsche Spiegelglas; Carolina Biologic Supply, Burlington, NC), kept them in a humidified incubator at 37°C with 95% air and 5% CO2, and studied them within 3–8 h of dissociation.
We visualized plated neurons using an inverted Nikon Diaphot 300 microscope with Hoffman modulation optic system. […] Large neuronal somata, roughly correspond to large, myelinated Aβ fibers.
as §2
Sampling frequency of single-channel data was 5 KHz with a low-pass filter (1 KHz). […] We applied a conventional 50% current amplitude threshold level criterion to determine open events. Channel open probability (Po) was determined from the ratios of the area under the peaks in the amplitude histograms fitted by a Gaussian distribution. We calculated channel activity as NPo (where N is the number of observed channels in the patch) from data samples of either 30 s (in inside-out recordings), or 60 s (in cell-attached recordings), in the steady state. In inside-out recordings, NPo of the KATP channels was normalized to the baseline NPo value obtained before test drugs at bathing solution without ATP (indicating relative channel activity).

T1 sequence (Q09429 whole entry): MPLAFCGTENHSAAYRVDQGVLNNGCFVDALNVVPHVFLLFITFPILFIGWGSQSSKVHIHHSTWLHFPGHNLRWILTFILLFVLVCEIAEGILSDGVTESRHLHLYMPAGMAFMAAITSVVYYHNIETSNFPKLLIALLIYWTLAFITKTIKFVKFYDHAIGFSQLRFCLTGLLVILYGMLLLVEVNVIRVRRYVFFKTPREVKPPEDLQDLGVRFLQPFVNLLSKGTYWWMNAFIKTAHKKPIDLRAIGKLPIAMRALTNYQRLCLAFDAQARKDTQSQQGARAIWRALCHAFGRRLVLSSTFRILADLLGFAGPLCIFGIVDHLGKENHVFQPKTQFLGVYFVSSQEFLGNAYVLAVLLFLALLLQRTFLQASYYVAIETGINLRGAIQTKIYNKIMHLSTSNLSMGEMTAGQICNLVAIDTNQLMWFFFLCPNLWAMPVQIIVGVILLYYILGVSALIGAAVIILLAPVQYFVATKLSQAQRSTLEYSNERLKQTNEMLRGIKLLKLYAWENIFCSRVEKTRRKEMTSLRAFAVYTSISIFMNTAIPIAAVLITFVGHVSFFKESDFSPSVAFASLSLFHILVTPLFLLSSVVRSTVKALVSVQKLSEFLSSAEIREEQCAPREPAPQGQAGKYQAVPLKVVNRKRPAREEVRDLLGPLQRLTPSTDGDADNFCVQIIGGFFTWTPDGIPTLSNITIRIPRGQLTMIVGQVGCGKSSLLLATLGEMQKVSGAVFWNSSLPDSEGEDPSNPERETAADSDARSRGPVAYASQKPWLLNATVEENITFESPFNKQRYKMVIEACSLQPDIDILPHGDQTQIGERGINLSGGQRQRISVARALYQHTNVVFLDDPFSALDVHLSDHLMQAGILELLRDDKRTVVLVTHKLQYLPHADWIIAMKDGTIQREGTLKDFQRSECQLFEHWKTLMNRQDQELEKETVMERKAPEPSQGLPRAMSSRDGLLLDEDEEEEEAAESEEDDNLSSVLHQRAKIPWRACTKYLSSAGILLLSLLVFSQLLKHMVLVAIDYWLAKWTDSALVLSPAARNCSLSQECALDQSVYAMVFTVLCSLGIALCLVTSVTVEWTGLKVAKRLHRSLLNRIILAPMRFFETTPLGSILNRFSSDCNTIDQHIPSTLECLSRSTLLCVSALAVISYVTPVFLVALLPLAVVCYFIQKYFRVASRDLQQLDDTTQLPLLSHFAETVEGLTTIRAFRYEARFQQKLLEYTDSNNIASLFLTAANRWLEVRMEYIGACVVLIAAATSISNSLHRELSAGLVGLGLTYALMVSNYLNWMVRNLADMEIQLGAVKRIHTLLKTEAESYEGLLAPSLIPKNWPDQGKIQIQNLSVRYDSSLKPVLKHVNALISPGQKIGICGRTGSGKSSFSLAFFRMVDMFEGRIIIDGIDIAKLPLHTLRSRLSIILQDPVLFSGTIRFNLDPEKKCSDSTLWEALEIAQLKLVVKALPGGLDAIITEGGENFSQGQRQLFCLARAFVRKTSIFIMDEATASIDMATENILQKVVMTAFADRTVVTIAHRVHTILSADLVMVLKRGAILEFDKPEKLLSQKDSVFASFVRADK
T1 sequence (P70673 whole entry): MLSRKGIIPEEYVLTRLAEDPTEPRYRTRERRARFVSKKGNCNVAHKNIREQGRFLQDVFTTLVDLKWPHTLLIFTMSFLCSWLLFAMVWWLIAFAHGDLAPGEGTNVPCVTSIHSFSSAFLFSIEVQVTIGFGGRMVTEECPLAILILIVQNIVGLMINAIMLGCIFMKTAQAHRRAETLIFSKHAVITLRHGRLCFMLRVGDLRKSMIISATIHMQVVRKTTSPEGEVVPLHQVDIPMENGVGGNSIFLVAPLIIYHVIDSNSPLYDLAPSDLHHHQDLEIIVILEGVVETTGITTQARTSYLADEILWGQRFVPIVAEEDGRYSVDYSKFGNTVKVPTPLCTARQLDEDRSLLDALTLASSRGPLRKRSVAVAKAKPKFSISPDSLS

direct effect on KATP channel in inside-out patches ([1]; SNAP 100 μM in the presence of 1 mM [ATP]i): gradually activated
baseline current amplitude and conductance of channels ([1]; patch exposure to 100 μM SNAP, n = 5): remained unchanged
washout period after which effects were reversible ([2]; SNAP, data not shown): 2 to 5 min
NPo steady-state value 10 minutes after application of SNAP ([2]; SNL neurons): 0.31 ± 0.09
concentration at which KATP channel activation reaches a saturating plateau ([2]; SS and SNL neurons): ≥ 100 µM
NPo steady-state value 10 minutes after application of SNAP ([2]; SS neurons): 0.27 ± 0.07
Substance: S-nitroso-N-acetylpenicillamine [SNAP]
direct effect on KATP channel in inside-out patches ([1]; SNAP 100 μM in the presence of 10 μM [ATP]i): did not produce any significant channel activation
